How the values were obtained:
Format in all cases: cell-based
MCF-7 ER^D538G = assay: CellTiter-Glo cell proliferation inhibition, MCF-7 ER^D538G; details: Homo sapiens, MCF7, 144 h, MCF-7 ER^D538G (CTG), 6 days, starting concentration 10 μM; for inhibition at up to 10 µM: read-out: IH % max (maximum inhibition percentage)
In short: (§1)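 MCF-7, TamR-MCF-7, and CRISPR-edited MCF-7 ER D538G or Y537S cells were seeded at 1,000 or 2,000 cells/well in EMEM and cultured 24 h. They were then exposed to a 4-fold, 10-point series (top 10 µM before addition to wells) for 6 days or 72 h at 37 °C. CellTiter-Glo luminescence gave IC50 and maximum % inhibition.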

MCF-7 ER^Y537S = assay: CellTiter-Glo cell proliferation inhibition, MCF-7 ER^Y537S; details: Homo sapiens, MCF7, 144 h; MCF-7 ER^Y537S (CTG), 6 days, starting concentration 10 μM; read-out: IH % max (maximum inhibition percentage)
From the text: (§2) 1. Cell line • (1) Breast cancer cell lines and their culture media: • MCF-7 (ATCC; Cat. No.: HTB-22), a Luminal A breast cancer cell; • TamR-MCF-7 (ATCC; Cat. No.: CRL-3435), a breast cancer cell; • MCF-7 ER^D538G: a Luminal A breast cancer cell obtained by constructing MCF-7 (ATCC; Cat. No.: HTB-22) using CRISPR-Cas9 gene editing technology; • MCF-7 ER^Y537S: a Luminal A breast cancer cell obtained by constructing MCF-7 (ATCC; Cat. No.: HTB-22) using CRISPR-Cas9 gene editing technology; • MDA-MB-231: (manufacturer: Nanjing CoBioer Biosciences Co., Ltd.), a triple-negative breast cancer cell; • MDA-MB-468: (manufacturer: Nanjing CoBioer Biosciences Co., Ltd.), a triple-negative breast cancer cell.
(§3) Herein, the culture medium of MCF-7, TamR-MCF-7, MCF-7 ER^D538G, and MCF-7 ER^Y537S was EMEM; • the culture medium of MDA-MB-231 and MDA-MB-468 was DMEM.
(§4) 2. Reagents • Culture medium EMEM (Gibco, 1964507) • Culture medium DMEM (Gibco, 12430-054) • Fetal bovine serum (Gibco, 10091148) • Penicillin-streptomycin double antibody (Gibco, S110JV) • DPBS (Gibco, 14190-144) • CellTiter-Glo® assay kit (Promega, G7573) • Trypsin (0.25%) (Gibco, 25200-056) • DMSO (Sigma, D2650)
(§5) 3. Instruments • Biosafety cabinet (AIRTECH, BSC-1300A II) • Automated cell counter (Life Technologies, countess II) • Multifunctional microplate reader (Biotek, H1FM) • Orbital shaker (Hangzhou Allsheng Instruments Co., Ltd., OS-100) • XLFIT 5.3 (Inforstack Shanghai Co., Ltd.)
(§6) For this test method, the following experiments were performed in a biosafety cabinet, with the specific steps as follows: • (1) Cells were inoculated in a 96-well plate. One day later, the previous culture medium was poured off, 5 mL of DPBS was added to wash the cells, and then DPBS was pipetted and discarded. An appropriate amount of trypsin was then added. The plate was digested in a 37° C., 5% CO2 cell incubator for about 2 to 5 minutes and then taken out. Anew corresponding culture medium was added, and pipetted up and down to resuspend the cells evenly. The cells were then counted using an automated cell counter. • (2) Each cell was inoculated in columns 1 to 11 of a 96-well plate (Corning, Cat. No.: 3610) at a density of 1,000 or 2,000 cells per well in 100 μL of culture medium, and 100 μL of the corresponding culture medium without cells was added to the wells in column 12. The plate was then placed in a 37° C., 5% CO2 incubator for 24 hours. • (3) The compound of the present disclosure and the control drug fulvestrant (Selleck; Cat. No.: S1191) were then 4-fold serially diluted to 10 dose points starting at 10 μM. 10 μL of the serially diluted compound was pipetted and added to 100 μL of cells in columns 1 to 10, and 10 μL of the corresponding culture medium containing 0.33 v % DMSO was added to both columns 11 and 12. The plate was incubated in a 37° C., 5% CO2 incubator for 6 days or 72 hours (Note: column 11 was used as a MAX well with cells but without compound; column 12 was used as a MIN well without cells […]). • (4) The cell viability detection reagent in the CellTiter-Glo® assay kit was then added to the 96-well plate at 50 μL per well according to the instructions, and shaken on an orbital shaker in the dark for 5 to 10 minutes. The cell viability was then measured using a multifunctional microplate reader. Finally, the inhibition of cell proliferation by the compound of the present disclosure was plotted by XLFIT software, and the IC50 value (half inhibitory concentration) and the IH % max (maximum inhibition percentage) of the compound of the present disclosure were calculated.

TamR-MCF-7 = assay: CellTiter-Glo cell proliferation inhibition, TamR-MCF-7; details: 144 h, TamR-MCF-7 (CTG), 6 days, starting concentration 10 μM; for inhibition at up to 10 µM: read-out: IH % max (maximum inhibition percentage)
From the text: as §2, §3, §4, §5, §6

MDA-MB-231 = assay: CellTiter-Glo cell proliferation inhibition, MDA-MB-231; details: Homo sapiens, 144 h, MDA-MB-231 (CTG), 6 days, starting concentration 10 μM; for inhibition at up to 10 µM: read-out: IH % max (maximum inhibition percentage)
From the text: as §2, §3, §4, §5, §6
Compounds D64 to D69 were tested for MDA-MB-231 (CTG) and MDA-MB-468 (CTG) with an incubation time of 72 hours in the incubator.

MDA-MB-468 = assay: CellTiter-Glo cell proliferation inhibition, MDA-MB-468; details: Homo sapiens, 144 h, MDA-MB-468 (CTG), 6 days, starting concentration 10 μM; for inhibition at up to 10 µM: read-out: IH % max (maximum inhibition percentage)
MCF-7 = assay: CellTiter-Glo cell proliferation inhibition, MCF-7 (Effect Example 2); details: Homo sapiens, MCF7, 144 h, MCF-7 (CTG), 6 days, starting concentration 10 μM; for inhibition at up to 10 µM: read-out: IH % max (maximum inhibition percentage)
In short: as §1

IC50 (MCF-7 ER^D538G)	IC50 (MCF-7)	IC50 (TamR-MCF-7)	IC50 (MDA-MB-231)	IC50 (MDA-MB-468)	Structure (SMILES)	inhibition at up to 10 µM (MCF-7 ER^D538G)	inhibition at up to 10 µM (MCF-7 ER^Y537S)	inhibition at up to 10 µM (TamR-MCF-7)	inhibition at up to 10 µM (MDA-MB-231)	inhibition at up to 10 µM (MDA-MB-468)	inhibition at up to 10 µM (MCF-7)
202 nM	–	–	–	–	CCN(CCOCCOCCN1CCN(c2ccc3c(c2)C(=O)N(C2CCC(=O)NC2=O)C3)CC1)CCOc1ccc(Oc2c(-c3ccc(S(C)(=O)=O)cc3)ccc3cc(O)ccc23)cc1 (stereo not drawn) [Compound D49]	96%	86%	42%	97%	99%	42%
977 nM	954 nM	–	–	–	CS(=O)(=O)c1ccc(-c2ccc3cc(O)ccc3c2Oc2ccc(OCCNCCCCCNc3cccc4c3C(=O)N(C3CCC(=O)NC3=O)C4=O)cc2)cc1 (stereo not drawn) [Compound D60, 2-(2,6-dioxopiperidin-3-yl)-4-((5-((2-(4-((6-hydroxy-2-(4-(methylsulfonyl)phenyl)naphthalen-1-yl)oxy)phenoxy)ethyl)amino)pentyl)amino)isoindoline-1,3-dione]	96%	92%	50%	96%	51%	82%
–	–	–	–	–	CCN(CCNc1cccc2c1CN(C1CCC(=O)NC1=O)C2=O)CCOc1ccc(Oc2c(-c3ccc(S(C)(=O)=O)cc3)ccc3cc(O)ccc23)cc1 (stereo not drawn) [Compound D17, 3-(4-((2-(ethyl(2-(4-((6-hydroxy-2-(4-(methylsulfonyl)phenyl)naphthalen-1-yl)oxy)phenoxy)ethyl)amino)ethyl)amino)-1-oxoisoindolin-2-yl)piperidine-2,6-dione]	86%	77%	39%	87%	–	58%
230 nM	–	–	–	–	CCN(CCOCCOc1ccc2c(c1)C(=O)N(C1CCC(=O)NC1=O)C2=O)CCOc1ccc(Oc2c(-c3ccc(S(C)(=O)=O)cc3)ccc3cc(O)ccc23)cc1 (stereo not drawn) [Compound D23, 2-(2,6-dioxopiperidin-3-yl)-5-(2-(2-(ethyl(2-(4-((6-hydroxy-2-(4-(methylsulfonyl)phenyl)naphthalen-1-yl)oxy)phenoxy)ethyl)amino)ethoxy)ethoxy)isoindoline-1,3-dione]	94%	96%	64%	100%	79%	73%
288 nM	–	–	–	–	CCN(CCOc1ccc(Oc2c(-c3ccc(S(C)(=O)=O)cc3)ccc3cc(O)ccc23)cc1)C(=O)c1ccc(CCC2CCN(C3CCN(c4cccc5c4C(=O)N(C4CCC(=O)NC4=O)C5=O)CC3)CC2)cc1 (stereo not drawn) [Compound D33, 4-(2-(1′-(2-(2,6-dioxopiperidin-3-yl)-1,3-dioxoisoindolin-4-yl)-[1,4′-bipiperidin]-4-yl)ethyl)-N-ethyl-N-(2-(4-((6-hydroxy-2-(4-(methylsulfonyl)phenyl)naphthalen-1-yl)oxy)phenoxy)ethyl)benzamide]	92%	76%	45%	57%	94%	45%
428 nM	133 nM	331 nM	102 nM	260 nM	CS(=O)(=O)c1ccc(-c2ccc3cc(O)ccc3c2Oc2ccc(OCCN3CCN(c4ccc5c(c4)C(=O)N(C4CCC(=O)NC4=O)C5=O)CC3)cc2)cc1 (stereo not drawn) [Compound D6, 2-(2,6-dioxopiperidin-3-yl)-5-(4-(2-(4-((6-hydroxy-2-(4-(methylsulfonyl)phenyl)naphthalen-1-yl)oxy)phenoxy)ethyl)piperazin-1-yl)isoindoline-1,3-dione]	91%	78%	90%	100%	98%	100%
–	–	–	–	–	CCN(CCOCCOc1cccc2c1C(=O)N(C1CCC(=O)NC1=O)C2=O)CCOc1ccc(Oc2c(-c3ccc(S(C)(=O)=O)cc3)ccc3cc(O)ccc23)cc1 (stereo not drawn) [Compound D18, 2-(2,6-dioxopiperidin-3-yl)-4-(2-(2-(ethyl(2-(4-((6-hydroxy-2-(4-(methylsulfonyl)phenyl)naphthalen-1-yl)oxy)phenoxy)ethyl)amino)ethoxy)ethoxy)isoindoline-1,3-dione]	81%	67%	–	41%	–	39%
–	–	–	–	–	C[C@@H]1CN(CCOCC(=O)Nc2cccc3c2CN(C2CCC(=O)NC2=O)C3=O)[C@@H](C)CN1CCOc1ccc(Oc2c(-c3ccc(S(C)(=O)=O)cc3)ccc3cc(O)ccc23)cc1 (stereo partly drawn) [Compound D25, N-(2-(2,6-dioxopiperidin-3-yl)-1-oxoisoindolin-4-yl)-2-(2-((2S,5R)-4-(2-(4-((6-hydroxy-2-(4-(methylsulfonyl)phenyl)naphthalen-1-yl)oxy)phenoxy)ethyl)-2,5-dimethylpiperazin-1-yl)ethoxy)acetamide]	86%	59%	–	53%	96%	62%
830 nM	–	–	–	–	CCN(CCOCCOCC(=O)N1CCN(c2cccc3c2CN(C2CCC(=O)NC2=O)C3=O)CC1)CCOc1ccc(Oc2c(-c3ccc(S(C)(=O)=O)cc3)ccc3cc(O)ccc23)cc1 (stereo not drawn) [Compound D47]	89%	73%	–	83%	94%	31%
